From patent publication US11198704B2, “Butane-tetraol-based amphiphiles and uses thereof” (Industry-University Cooperation Foundation Hanyang …, priority 2016, dated 2021)
Entries after “also recorded” stand apart in the source; their conditions may differ.

Key:
[1] = Critical micelle concentration (CMC) using diphenylhexatriene (DPH) fluorescent stain; type: physicochemical; conditions: aqueous solution
Description: A method of measuring the CMC is not particularly limited, but the CMC may be measured using methods well known in the related art. For example, the CMC may be measured by a fluorescence staining method using diphenylhexatriene (DPH).
(§1) Specifically, the critical micelle concentration (CMC) was measured using diphenylhexatriene (DPH) as a fluorescent stain, and the hydrodynamic radii (Rh) of the micelles formed by each preparation (1.0% by weight) were measured through a dynamic light scattering (DLS) experiment.

[2] = Hydrodynamic radius and size distribution of micelles by dynamic light scattering (DLS); type: physicochemical; conditions: detergent 1.0% by weight
Description: A method of measuring the radius of the micelles is not particularly limited, but the radius of the micelles may be measured using methods well known in the related art. For example, the radius of the micelles may be measured through a dynamic light scattering (DLS) experiment.
as §1

[3] = target: T1, human β2 adrenergic receptor (β2AR) (Homo sapiens, UniProt P07550); experiment: Structural stability of β2AR, [3H]-dihydroalprenolol ([3H]-DHA) binding; type: biochemical; conditions: BTMs without CHS, DDM with CHS; for initial ligand-binding characteristics of β2AR ([3H]-DHA): CMC+0.2% by weight
T1 construct: made in house
T1 sequence (P07550 whole entry): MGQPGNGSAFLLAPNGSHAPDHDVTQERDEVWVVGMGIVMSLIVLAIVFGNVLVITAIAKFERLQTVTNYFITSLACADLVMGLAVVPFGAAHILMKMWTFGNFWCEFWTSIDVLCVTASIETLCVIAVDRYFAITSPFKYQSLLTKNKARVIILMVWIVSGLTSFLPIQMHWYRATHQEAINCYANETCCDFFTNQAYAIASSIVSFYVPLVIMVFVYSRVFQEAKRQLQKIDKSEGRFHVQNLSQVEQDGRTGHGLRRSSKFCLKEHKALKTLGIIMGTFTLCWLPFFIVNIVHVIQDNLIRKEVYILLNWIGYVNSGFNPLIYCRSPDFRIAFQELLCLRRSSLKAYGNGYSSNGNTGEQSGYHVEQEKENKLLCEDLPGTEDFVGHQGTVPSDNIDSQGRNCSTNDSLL
Description: An experiment for determining the structural stability of a human β2 adrenergic receptor (β2AR) and a G-protein-coupled receptor (GPCR) by BTMs was performed. That is, a receptor purified with DDM was diluted with a buffer solution containing only each of the BTMs without cholesteryl hemisuccinate (CHS) or a buffer solution containing DDM with CHS. The final compound concentration was CMC+0.2% by weight, and the ligand-binding characteristics of the receptor were determined through [^3H]-dihydroalprenolol ([^3H]-DHA) binding.
Specifically, a radioactive ligand binding test was performed using the following method. β2AR was purified with 0.1% DDM (D. M. Rosenbaum et al., Science, 2007, 318, 1266-1273.), and finally concentrated to approximately 10 mg/mL (approximately 200 μM). A master binding mixture containing 10 nM [^3H]-dihydroalprenolol (DHA) supplemented with 0.5 mg/mL BSA in each 0.2% amphiphilic compound (DDM or BTMs) was prepared using the β2AR purified with DDM. The ligand-binding characteristics of the receptor purified with the amphiphilic compound at 0.2 pmol was monitored at regular intervals while the receptor was incubated at room temperature for 3 days. The ligand-binding characteristics of the receptor were determined using a water-soluble radioactive ligand binding assay as will be described below. The receptor purified with DDM or each of the BTMs was incubated with 10 nM [^3H]-DHA at room temperature for 30 minutes. The mixture was loaded on a G-50 column, and flow-through fractions were collected using 1 mL of a binding buffer (20 mM HEPES (pH 7.5) supplemented with 0.5 mg/mL BSA and 20×CMC of each amphiphilic compound, 100 mM NaCl). Then, the G-50 column was filled with 15 mL of a scintillation fluid. Receptor-bound [^3H]-DHA was counted using a scintillation counter (Beckman). Non-specific binding of [^3H]-DHA was determined by adding 2 μM of alprenolol (Sigma) in the same binding reaction. The binding affinity of [^3H]-DHA was plotted on a column graph, and each experiment was performed in triplicate.

[4] = target: T2, melibiose permease (MelB) (Salmonella typhimurium, UniProt P30878); experiment: MelB extraction and thermostability, SDS-PAGE and Western Blotting of the dissolved protein; conditions: 55° C., 90 minutes; detergent 1.5% by weight
T2 construct: made in house; host or cells: E. coli DW2
T2 sequence (P30878 whole entry): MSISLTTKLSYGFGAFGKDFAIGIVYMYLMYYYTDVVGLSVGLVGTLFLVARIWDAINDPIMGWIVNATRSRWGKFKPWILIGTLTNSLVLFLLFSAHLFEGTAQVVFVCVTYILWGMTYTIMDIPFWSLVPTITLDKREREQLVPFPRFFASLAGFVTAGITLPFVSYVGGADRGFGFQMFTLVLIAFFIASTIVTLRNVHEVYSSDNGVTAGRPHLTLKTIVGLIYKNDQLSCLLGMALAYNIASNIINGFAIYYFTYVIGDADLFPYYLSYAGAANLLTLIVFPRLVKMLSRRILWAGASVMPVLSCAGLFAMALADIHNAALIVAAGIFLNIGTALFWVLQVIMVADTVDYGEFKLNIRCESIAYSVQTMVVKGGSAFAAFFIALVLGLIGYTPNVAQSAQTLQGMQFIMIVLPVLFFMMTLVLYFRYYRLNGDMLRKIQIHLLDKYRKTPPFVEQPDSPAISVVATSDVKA
Description: The MelB protein was extracted from a membrane using BTM-C11s or DDM, and the amount and structure of the extracted protein were analyzed through SDS-PAGE and Western Blotting. A concentration of the amphiphilic compound used was 1.5% by weight, and the protein was extracted at four temperatures (0, 45, 55, and 65° C.), and incubated at the same temperature for 90 minutes. Thereafter, an amount of the protein remaining dissolved in an aqueous solution was measured to evaluate two types of performance: protein extraction efficiency and stabilization ability of the compound. The amount of the protein extracted and stabilized with each of the amphiphilic molecules is expressed as a relative value (%) of the entire amount of proteins contained in a membrane sample which is not treated with the amphiphilic molecules.
Specifically, Salmonella typhimurium melibiose permease (MelBSt) having a 10-His tag at the C-terminus thereof was expressed in E. coli DW2 cells (AmelB and AlacZY) using a plasmid pK95ΔAHB/WT MelBSt/CH10. Cell growth and membrane preparation were performed according to the method disclosed in the article by A. S. Ethayathulla et al. (Nat. Commun. 2014, 5, 3009). A protein assay was performed using a Micro BCA kit (Thermo Scientific, Rockford, Ill.). An effect of the isomers (A-BTM-C11, B-BTM-C11, and M-BTM-C11) of the BTM-C11s or DDM on the MelBSt stability was evaluated using the protocol disclosed in P. S. Chae et al. (Nat. Methods 2010, 7, 1003-1008). A membrane sample (having a final protein concentration of 10 mg/mL) containing MelBSt was incubated at four temperatures (0, 45, 55, and 65° C.) for 90 minutes in a solubilizing buffer (20 mM sodium phosphate, pH 7.5, 200 mM NaCl, 10% glycerol, and 20 mM melibiose) containing 1.5% (w/v) DDM or the BTM-C11 isomers. To remove insoluble matter, the sample was ultracentrifuged at 355,590 g at 4° C. for 45 minutes using a Beckman Optima™ MAX ultracentrifuge equipped with a TLA-100 rotor. The dissolved fraction was separated by 16% SDS-PAGE, and then immunoblotted with a Penta-His-HRP antibody (Qiagen, Germantown, Md.). The membrane fraction containing 20 μg of untreated proteins was used to represent the entire MelB, and the treated samples were loaded in each well at the same volume. MelBSt was measured by an ImageQuant LAS 4000 Biomolecular imager (GE Health Care Life Sciences) using a SuperSignal West Pico chemiluminescent substrate.

[5] = tested on: uric acid-xanthine/H+ symporter (UapA), UapAG411VΔ1-11 GFP fusion; experiment: Thermal stability of UapA solubilized by detergent, fluorescence size exclusion chromatography (FSEC); design: species or system Aspergillus nidulans; conditions: detergent 1.0% by weight; 40° C. for 10 minutes
Description: A UapA protein is a uric acid-xanthine/H^+ symporter in Aspergillus nidulans. An experiment for measuring structural stability of a uric acid-xanthine/H^+ symporter (UapA) by BTMs in an aqueous solution was performed. The structural stability of UapA was measured using fluorescence size exclusion chromatography (FSEC).
Specifically, UapAG411VΔ1-11 (hereinafter referred to as ‘UapA’) was expressed as a GFP fusion protein in a Saccharomyces cerevisiae FGY217 strain, and divided into a sample buffer (20 mM Tris (pH 7.5), 150 mM NaCl, 0.03% DDM, and 0.6 mM xanthine). This procedure was performed according to the method disclosed in the article by J. Leung et al. (Mol. Membr. Biol. 2013, 30, 32-42). Membranes containing UapA were re-suspended in PBS (10 mM imidazole pH 8.0, 150 mM NaCl, and 10% glycerol), and a concentration of proteins was measured. […] 100 μL aliquots were removed from the respective tubes, and fluorescence reading on each sample was performed before and after the aliquots were ultracentrifuged at 150,000 g for 10 minutes to remove insoluble matter. Water-soluble fractions remaining under each condition were subjected to fluorescence SEC (FSEC) using a Superose 6 column (GE Healthcare) equilibrated with a buffer containing a proper preparation (DDM or BTM).

| SMILES | CMC [1] [mM] | CMC (% by weight) [1] [% by weight] | Rh (nm), hydrodynamic radius of micelles [2] [nm] | initial ligand-binding characteristics of β2AR ([3H]-DHA) [3] | remaining ligand-binding ability of β2AR, % of initial ([3]; after 3 days of incubation at room temperature) | effect on the long-term stability of the receptor (β2AR) ([3]; room temperature, 3 days) | amount of MelB protein remaining dissolved in aqueous solution [4] | UapA monodisperse peak in FSEC (extraction and structural stability) [5] |
| --- | --- | --- | --- | --- | --- | --- | --- | --- |
| CCCCCCCCCOC[C@H](O[C@@H]1OC(CO)[C@@H](O[C@H]2OC(CO)[C@@H](O)C(O)C2O)C(O)C1O)[C@H](COCCCCCCCCC)O[C@@H]1OC(CO)[C@@H](O[C@H]2OC(CO)[C@@H](O)C(O)C2O)C(O)C1O (stereo partly drawn) [A-BTM-C9] | ~0.021 | ~0.0022 | 2.9 ± 0.04 | – | – | – | – | – |
| CCCCCCCCCCOC[C@H](O[C@@H]1OC(CO)[C@@H](O[C@H]2OC(CO)[C@@H](O)C(O)C2O)C(O)C1O)[C@H](COCCCCCCCCCC)O[C@@H]1OC(CO)[C@@H](O[C@H]2OC(CO)[C@@H](O)C(O)C2O)C(O)C1O (stereo partly drawn) [A-BTM-C10] | ~0.011 | ~0.0012 | 3.2 ± 0.07 | – | – | – | – | – |
| CCCCCCCCCCCOC[C@H](O[C@@H]1OC(CO)[C@@H](O[C@H]2OC(CO)[C@@H](O)C(O)C2O)C(O)C1O)[C@H](COCCCCCCCCCCC)O[C@@H]1OC(CO)[C@@H](O[C@H]2OC(CO)[C@@H](O)C(O)C2O)C(O)C1O (stereo partly drawn) [A-BTM-C11] | ~0.007 | ~0.0008 | 3.5 ± 0.03 | slight decrease in the ligand-binding characteristics | – | – | – | – |
| CCCCCCCCCCOC[C@@H](O[C@@H]1OC(CO)[C@@H](O[C@H]2OC(CO)[C@@H](O)C(O)C2O)C(O)C1O)[C@@H](COCCCCCCCCCC)O[C@@H]1OC(CO)[C@@H](O[C@H]2OC(CO)[C@@H](O)C(O)C2O)C(O)C1O (stereo partly drawn) [B-BTM-C10] | ~0.013 | ~0.0014 | 3.1 ± 0.07 | – | – | – | – | – |
| CCCCCCCCCCCOC[C@@H](O[C@@H]1OC(CO)[C@@H](O[C@H]2OC(CO)[C@@H](O)C(O)C2O)C(O)C1O)[C@@H](COCCCCCCCCCCC)O[C@@H]1OC(CO)[C@@H](O[C@H]2OC(CO)[C@@H](O)C(O)C2O)C(O)C1O (stereo partly drawn) [B-BTM-C11] | ~0.008 | ~0.0009 | 3.5 ± 0.08 | – | – | – | – | – |
| CCCCCCCCCOC[C@H](O[C@@H]1OC(CO)[C@@H](O[C@H]2OC(CO)[C@@H](O)C(O)C2O)C(O)C1O)[C@@H](COCCCCCCCCC)O[C@@H]1OC(CO)[C@@H](O[C@H]2OC(CO)[C@@H](O)C(O)C2O)C(O)C1O (stereo partly drawn) [M-BTM-C9] | ~0.017 | ~0.0017 | 3.2 ± 0.05 | – | – | – | – | – |
| CCCCCCCCCCOC[C@H](O[C@@H]1OC(CO)[C@@H](O[C@H]2OC(CO)[C@@H](O)C(O)C2O)C(O)C1O)[C@@H](COCCCCCCCCCC)O[C@@H]1OC(CO)[C@@H](O[C@H]2OC(CO)[C@@H](O)C(O)C2O)C(O)C1O (stereo partly drawn) [M-BTM-C10] | ~0.008 | ~0.0009 | 3.5 ± 0.07 | – | – | – | – | – |
| CCCCCCCCCCCOC[C@H](O[C@@H]1OC(CO)[C@@H](O[C@H]2OC(CO)[C@@H](O)C(O)C2O)C(O)C1O)[C@@H](COCCCCCCCCCCC)O[C@@H]1OC(CO)[C@@H](O[C@H]2OC(CO)[C@@H](O)C(O)C2O)C(O)C1O (stereo partly drawn) [M-BTM-C11] | ~0.006 | ~0.0006 | 4.7 ± 0.27 | slight decrease in the ligand-binding characteristics | approximately 70% | much more superior effect in maintaining the long-term stability of β2AR, compared to DDM | complete solubility | significant increase in the recovery of monodisperse peaks; also recorded: most excellent effect |
